Activity calls are given as the source filed them. The calls are words filed in the database; no cut-off is given here.
How the values were obtained:
[1] = target: T1, Histone-lysine N-methyltransferase NSD2 (Homo sapiens) (UniProt O96028); assay: Induction of NSD2 degradation in human NCI-H1703 cells at 3 to […] incubated for 72 hrs by Western blot analysis; format: cell-based; settings: dose 3-7.5 µM
T1 sequence (whole entry): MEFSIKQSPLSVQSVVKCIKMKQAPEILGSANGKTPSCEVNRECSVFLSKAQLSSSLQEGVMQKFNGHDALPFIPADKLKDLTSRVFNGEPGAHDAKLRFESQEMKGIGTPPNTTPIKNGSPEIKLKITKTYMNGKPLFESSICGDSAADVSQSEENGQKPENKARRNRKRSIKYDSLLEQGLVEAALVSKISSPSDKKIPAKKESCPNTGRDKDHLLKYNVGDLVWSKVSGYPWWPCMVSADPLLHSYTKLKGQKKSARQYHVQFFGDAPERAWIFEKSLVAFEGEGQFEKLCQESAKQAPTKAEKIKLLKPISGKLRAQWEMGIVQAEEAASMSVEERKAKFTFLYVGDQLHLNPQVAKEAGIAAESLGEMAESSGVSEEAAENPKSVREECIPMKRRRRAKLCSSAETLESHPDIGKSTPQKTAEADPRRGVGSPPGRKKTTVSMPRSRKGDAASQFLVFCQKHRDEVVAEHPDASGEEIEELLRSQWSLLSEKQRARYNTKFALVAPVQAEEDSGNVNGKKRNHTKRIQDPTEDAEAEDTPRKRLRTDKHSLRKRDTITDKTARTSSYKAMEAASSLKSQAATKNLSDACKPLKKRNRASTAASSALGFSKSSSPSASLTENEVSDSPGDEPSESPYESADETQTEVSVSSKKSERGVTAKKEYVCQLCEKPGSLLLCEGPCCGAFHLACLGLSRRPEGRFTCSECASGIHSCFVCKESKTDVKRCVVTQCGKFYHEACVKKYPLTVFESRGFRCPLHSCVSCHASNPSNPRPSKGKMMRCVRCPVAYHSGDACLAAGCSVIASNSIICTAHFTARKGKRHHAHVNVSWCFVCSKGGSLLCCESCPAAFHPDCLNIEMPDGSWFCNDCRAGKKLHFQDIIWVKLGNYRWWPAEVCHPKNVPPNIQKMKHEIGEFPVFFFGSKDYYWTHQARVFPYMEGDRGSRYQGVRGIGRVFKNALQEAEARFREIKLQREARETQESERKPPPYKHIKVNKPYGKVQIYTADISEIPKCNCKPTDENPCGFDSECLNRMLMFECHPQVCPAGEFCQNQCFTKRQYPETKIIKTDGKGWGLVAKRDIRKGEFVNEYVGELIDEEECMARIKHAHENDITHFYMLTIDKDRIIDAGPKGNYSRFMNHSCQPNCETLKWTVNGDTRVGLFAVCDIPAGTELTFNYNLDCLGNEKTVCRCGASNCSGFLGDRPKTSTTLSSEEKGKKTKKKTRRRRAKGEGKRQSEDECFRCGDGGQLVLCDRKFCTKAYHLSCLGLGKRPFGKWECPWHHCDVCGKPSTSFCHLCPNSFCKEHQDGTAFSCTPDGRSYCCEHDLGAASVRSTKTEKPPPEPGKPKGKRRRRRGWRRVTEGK

NCI-H1703 [2] = assay: Induction of apoptosis in human NCI-H1703 cells assessed as decrease in NSD3 protein expression at 10 uM by measuring fold change by Western blot analysis relative to control; format: functional
NCI-H1703 [3] = assay: Induction of apoptosis in human NCI-H1703 cells assessed as decrease in MCL-1 protein expression at […] by measuring fold change by Western blot analysis relative to control; format: functional; settings: dose 7.5 µM
[4] = Downregulation of Cyclin D1 level in human NCI-H1703 cells at 3 uM by measuring fold change by Western blot analysis relative to control; format: functional
NCI-H520 [5] = assay: Induction of apoptosis in human NCI-H520 cells assessed as decrease in Bcl-XL protein expression at 5 uM by measuring fold change by Western blot analysis relative to control; format: functional
[6] = Downregulation of CDC25A level in human NCI-H520 cells at […] by measuring fold change by Western blot analysis relative to control; format: functional; settings: dose 7.5 µM
[7] = target: Histone-lysine N-methyltransferase, H3 lysine-36 specific (Homo sapiens) (UniProt Q96L73); assay: Induction of NSD1 degradation in human A549 cells at 5 to 10 uM incubated for 72 hrs by Western blot analysis; format: cell-based; settings: dose 5-10 µM
Sequence of Histone-lysine N-methyltransferase, H3 lysine-36 specific (Homo sapiens) (Q96L73 whole entry): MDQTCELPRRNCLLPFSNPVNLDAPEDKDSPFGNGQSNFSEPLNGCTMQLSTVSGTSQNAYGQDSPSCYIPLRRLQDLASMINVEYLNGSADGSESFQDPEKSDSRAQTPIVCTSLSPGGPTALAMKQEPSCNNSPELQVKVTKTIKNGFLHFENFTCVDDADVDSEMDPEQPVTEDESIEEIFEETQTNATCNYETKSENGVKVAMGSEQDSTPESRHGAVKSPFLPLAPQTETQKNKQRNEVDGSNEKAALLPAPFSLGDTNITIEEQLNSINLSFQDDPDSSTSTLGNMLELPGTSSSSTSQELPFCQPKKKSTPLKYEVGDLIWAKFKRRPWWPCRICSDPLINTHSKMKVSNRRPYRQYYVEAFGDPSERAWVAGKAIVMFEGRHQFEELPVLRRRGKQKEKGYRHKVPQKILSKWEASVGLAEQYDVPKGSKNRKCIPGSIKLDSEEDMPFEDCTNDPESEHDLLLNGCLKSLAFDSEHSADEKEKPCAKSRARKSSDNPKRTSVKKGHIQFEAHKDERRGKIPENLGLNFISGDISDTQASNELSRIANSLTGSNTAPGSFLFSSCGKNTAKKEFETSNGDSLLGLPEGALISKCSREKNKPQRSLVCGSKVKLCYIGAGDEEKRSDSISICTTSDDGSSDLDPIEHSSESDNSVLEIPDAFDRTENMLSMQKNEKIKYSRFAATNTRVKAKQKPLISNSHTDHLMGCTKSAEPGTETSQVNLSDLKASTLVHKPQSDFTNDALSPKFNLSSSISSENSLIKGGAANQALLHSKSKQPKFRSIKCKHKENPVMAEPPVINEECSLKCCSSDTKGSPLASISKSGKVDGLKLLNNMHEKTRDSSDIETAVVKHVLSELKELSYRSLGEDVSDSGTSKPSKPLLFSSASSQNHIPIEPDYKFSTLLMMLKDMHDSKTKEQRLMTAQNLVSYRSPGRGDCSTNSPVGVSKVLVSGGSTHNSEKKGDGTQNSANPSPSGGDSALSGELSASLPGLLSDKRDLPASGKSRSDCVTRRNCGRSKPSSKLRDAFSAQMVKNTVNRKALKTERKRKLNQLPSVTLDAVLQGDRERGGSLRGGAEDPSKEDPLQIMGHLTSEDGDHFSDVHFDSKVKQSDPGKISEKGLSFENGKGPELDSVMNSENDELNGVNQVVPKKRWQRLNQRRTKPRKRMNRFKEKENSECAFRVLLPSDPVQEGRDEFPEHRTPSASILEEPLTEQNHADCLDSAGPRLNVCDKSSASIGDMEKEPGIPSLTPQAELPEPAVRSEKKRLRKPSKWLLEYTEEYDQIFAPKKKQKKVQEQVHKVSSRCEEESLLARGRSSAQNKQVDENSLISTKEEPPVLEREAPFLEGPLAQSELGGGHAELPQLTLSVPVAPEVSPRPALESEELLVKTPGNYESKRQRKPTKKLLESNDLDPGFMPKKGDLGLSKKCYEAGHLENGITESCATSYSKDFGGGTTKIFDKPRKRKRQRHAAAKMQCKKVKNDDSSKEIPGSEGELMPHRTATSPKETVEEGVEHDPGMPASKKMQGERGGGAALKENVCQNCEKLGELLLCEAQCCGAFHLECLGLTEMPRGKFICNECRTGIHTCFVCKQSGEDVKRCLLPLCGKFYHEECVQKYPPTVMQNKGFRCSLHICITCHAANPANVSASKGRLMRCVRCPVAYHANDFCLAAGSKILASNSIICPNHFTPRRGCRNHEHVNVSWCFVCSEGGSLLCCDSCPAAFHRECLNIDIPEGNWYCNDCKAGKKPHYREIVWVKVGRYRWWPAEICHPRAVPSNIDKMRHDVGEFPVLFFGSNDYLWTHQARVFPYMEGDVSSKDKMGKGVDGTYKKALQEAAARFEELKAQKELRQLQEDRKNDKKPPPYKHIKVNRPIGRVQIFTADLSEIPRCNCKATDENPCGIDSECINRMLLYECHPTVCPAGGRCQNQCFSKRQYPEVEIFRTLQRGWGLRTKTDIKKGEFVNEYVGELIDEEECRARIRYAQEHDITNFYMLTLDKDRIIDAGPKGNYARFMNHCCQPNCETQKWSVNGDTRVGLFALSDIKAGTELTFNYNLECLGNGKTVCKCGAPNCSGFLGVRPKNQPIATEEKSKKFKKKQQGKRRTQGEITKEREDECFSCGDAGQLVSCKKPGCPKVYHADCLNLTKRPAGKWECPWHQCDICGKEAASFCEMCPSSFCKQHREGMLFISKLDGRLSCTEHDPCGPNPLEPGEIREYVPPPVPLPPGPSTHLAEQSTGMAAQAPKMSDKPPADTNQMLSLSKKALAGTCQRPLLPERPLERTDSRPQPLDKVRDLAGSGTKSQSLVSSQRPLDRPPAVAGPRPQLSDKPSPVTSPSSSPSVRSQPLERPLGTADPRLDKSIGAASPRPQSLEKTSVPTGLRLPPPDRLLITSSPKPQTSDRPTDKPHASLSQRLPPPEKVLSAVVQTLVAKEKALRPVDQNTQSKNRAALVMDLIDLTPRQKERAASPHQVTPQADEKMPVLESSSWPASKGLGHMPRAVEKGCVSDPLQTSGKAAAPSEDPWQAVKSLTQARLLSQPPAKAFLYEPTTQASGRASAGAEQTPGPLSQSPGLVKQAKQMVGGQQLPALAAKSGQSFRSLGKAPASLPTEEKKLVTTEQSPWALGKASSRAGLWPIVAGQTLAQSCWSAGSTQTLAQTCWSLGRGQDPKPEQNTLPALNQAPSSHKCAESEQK

NCI-H1703 [8] = assay: Induction of apoptosis in human NCI-H1703 cells assessed as decrease in MCL-1 protein expression at 10 uM by measuring fold change by Western blot analysis relative to control; format: functional
NCI-H520 [9] = assay: Induction of apoptosis in human NCI-H520 cells assessed as decrease in NSD3 protein expression at […] by measuring fold change by Western blot analysis relative to control; format: functional; settings: dose 7.5 µM
[10] = Downregulation of c-Myc level in human NCI-H520 cells at 3 uM by measuring fold change by Western blot analysis relative to control; format: functional
[11] = Downregulation of CDC25A level in human NCI-H520 cells at 3 uM by measuring fold change by Western blot analysis relative to control; format: functional

Activity [1]: inactive
Activity [7]: inactive
SMILES: Cc1cc(CNCCCCCCCCCCC(=O)N[C@H](C(=O)N2C[C@H](O)C[C@H]2C(=O)N[C@@H](C)c2ccc(-c3scnc3C)cc2)C(C)(C)C)cc(C)c1-c1ncn(C)c1-c1ccnc2cc(F)ccc12
fold change (FC) (NCI-H1703 [2]): 0.63
fold change (FC) (NCI-H1703 [3]): 0.54
fold change (FC) [4]: 0.84
fold change (FC) (NCI-H520 [5]): 1.1
fold change (FC) [6]: 0.6
fold change (FC) (NCI-H1703 [8]): 0.53
fold change (FC) (NCI-H520 [9]): 0.5
fold change (FC) [10]: 1.03
fold change (FC) [11]: 0.9
